In patent publication US8063220B2, “Sulfonyl-quinoline derivatives” (Richter Gedeon Nyrt., priority 2007, dated 2011):

How the values were obtained:
[1] = biological target: T1, rat mGluR5 (Rattus norvegicus, UniProt P31424); assay: MGluR5 receptor binding test ([3H]-M-MPEP displacement, rat cerebro-cortical membrane preparation); settings: rat mGluR5, [3H]-M-MPEP 2 nM; read-out: mGlu5 Ki
T1 construct: Rat cerebro-cortical membrane preparation was used; from tissue; host or cells: rat cerebral cortex (membrane preparation)
Description: Rat cerebro-cortical membrane preparation was used to determine the binding characteristics of reference compounds and novel compounds to the rat mGluR5. The A18 cell line expressing hmGluR5a (purchased from Euroscreen) was used to determine binding characteristics of the chemical compounds to the human mGluR5a receptor. [3H]-M-MPEP (2 nM) was used as radioligand. The nonspecific binding was determined in the presence of 10 μM M-MPEP.

[2] = biological target: T2, rat mGluR1 (Rattus norvegicus, UniProt P23385); assay: MGluR1 receptor binding test ([3H]R214127 displacement, rat cerebellar membrane preparation); settings: rat mGluR1, [3H]R214127 3 nM; read-out: mGlu1 Ki
T2 construct: rat cerebellar membrane preparation was used; from tissue; host or cells: rat cerebellum (membrane preparation)
Summary of the method: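 Rat cerebellar membranes with 3 nM [3H]R214127; nonspecific binding defined by 1 μM R214127. IC50 from displacement curves by nonlinear regression, converted to Ki by Cheng–Prusoff.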

T2 sequence (P23385 19-1199): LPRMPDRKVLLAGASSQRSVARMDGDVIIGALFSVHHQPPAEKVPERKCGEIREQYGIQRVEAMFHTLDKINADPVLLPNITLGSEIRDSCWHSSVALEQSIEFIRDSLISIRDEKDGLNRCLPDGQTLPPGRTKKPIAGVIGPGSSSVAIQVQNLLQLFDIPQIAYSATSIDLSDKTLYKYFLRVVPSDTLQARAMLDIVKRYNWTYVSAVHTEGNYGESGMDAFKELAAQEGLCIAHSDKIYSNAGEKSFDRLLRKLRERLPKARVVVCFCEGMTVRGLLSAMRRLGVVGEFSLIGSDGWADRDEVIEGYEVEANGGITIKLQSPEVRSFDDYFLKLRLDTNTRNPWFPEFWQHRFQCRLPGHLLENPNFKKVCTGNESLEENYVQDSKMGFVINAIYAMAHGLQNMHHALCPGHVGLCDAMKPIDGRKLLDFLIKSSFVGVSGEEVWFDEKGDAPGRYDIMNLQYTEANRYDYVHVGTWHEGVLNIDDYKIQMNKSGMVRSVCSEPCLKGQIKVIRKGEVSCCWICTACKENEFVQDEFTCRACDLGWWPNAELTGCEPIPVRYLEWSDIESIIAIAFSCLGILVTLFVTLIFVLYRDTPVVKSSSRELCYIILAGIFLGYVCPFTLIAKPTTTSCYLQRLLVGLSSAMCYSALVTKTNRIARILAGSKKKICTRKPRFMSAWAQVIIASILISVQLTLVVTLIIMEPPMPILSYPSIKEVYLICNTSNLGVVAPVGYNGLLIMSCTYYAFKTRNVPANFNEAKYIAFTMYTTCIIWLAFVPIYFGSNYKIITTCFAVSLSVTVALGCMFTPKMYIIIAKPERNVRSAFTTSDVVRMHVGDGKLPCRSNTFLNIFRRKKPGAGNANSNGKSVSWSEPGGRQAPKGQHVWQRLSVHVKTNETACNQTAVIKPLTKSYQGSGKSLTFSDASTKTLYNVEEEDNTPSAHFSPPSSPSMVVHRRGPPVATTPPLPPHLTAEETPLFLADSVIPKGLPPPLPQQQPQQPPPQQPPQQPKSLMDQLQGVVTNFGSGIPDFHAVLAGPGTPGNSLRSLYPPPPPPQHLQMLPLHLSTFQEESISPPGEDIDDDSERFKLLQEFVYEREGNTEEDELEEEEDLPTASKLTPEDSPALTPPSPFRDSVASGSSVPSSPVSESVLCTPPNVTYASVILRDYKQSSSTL
T1 sequence (P31424 21-1203): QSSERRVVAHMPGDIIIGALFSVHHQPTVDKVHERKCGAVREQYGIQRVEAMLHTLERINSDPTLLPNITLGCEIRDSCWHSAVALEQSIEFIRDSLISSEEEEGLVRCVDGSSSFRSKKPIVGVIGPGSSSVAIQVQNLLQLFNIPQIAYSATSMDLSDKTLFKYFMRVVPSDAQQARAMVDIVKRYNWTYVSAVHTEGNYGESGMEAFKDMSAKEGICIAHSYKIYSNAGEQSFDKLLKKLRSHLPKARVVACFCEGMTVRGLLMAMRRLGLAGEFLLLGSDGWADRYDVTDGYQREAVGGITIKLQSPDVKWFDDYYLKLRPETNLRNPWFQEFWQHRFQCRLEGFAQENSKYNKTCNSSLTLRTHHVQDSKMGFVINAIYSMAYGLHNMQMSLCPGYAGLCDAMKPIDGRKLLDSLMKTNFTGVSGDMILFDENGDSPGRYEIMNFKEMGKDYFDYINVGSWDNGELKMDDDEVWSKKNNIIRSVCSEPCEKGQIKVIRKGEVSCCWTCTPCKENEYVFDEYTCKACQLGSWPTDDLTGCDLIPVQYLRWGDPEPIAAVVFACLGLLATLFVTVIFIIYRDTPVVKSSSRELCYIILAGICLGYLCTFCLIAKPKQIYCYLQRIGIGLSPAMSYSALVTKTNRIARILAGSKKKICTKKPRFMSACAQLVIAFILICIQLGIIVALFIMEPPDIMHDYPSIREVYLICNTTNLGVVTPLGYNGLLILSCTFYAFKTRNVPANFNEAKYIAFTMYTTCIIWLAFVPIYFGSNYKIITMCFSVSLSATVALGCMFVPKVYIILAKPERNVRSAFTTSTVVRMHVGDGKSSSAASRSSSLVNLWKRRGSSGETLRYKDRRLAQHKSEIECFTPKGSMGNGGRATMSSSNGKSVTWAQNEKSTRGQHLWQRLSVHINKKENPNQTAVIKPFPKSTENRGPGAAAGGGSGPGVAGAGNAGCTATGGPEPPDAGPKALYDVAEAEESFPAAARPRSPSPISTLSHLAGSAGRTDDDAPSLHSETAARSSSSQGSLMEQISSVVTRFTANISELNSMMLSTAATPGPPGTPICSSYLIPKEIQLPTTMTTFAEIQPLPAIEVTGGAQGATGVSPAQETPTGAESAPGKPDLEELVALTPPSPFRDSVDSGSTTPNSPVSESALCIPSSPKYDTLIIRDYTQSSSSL

SMILES	Ki [1]	Ki [2]
N#Cc1ccc2c(-c3ccccc3F)c(S(=O)(=O)c3cc(F)cc(F)c3)cnc2c1 [Compound 199]	200 to 500 nM	> 500 nM
O=S(=O)(c1cc(F)cc(F)c1)c1cnc2cc(F)ccc2c1-c1ccc(F)cc1 [Compound 36]	< 200 nM	> 500 nM
N#Cc1cc(S(=O)(=O)c2cnc3cc(Cl)ccc3c2-c2ccc(Cl)cc2)ccc1F [Compound 277]	< 200 nM	200 to 500 nM
O=S(=O)(c1ccc(F)c(Cl)c1)c1cnc2c(F)cccc2c1-c1ccc(Cl)cc1 [Compound 208]	< 200 nM	200 to 500 nM
O=S(=O)(c1ccc(Cl)c(F)c1)c1cnc2cc(F)c(Cl)cc2c1-c1ccc(Cl)cc1 [Compound 189]	< 200 nM	> 500 nM
N#Cc1cc(S(=O)(=O)c2cnc3ccccc3c2-c2ccc(Cl)c(Cl)c2)ccc1F [Compound 232]	< 200 nM	> 500 nM
N#Cc1cc(F)cc(S(=O)(=O)c2cnc3cc(Cl)ccc3c2-c2ccc(F)cc2)c1 [Compound 186, 7-chloro-3-(3-cyano-5-fluoro-benzenesulfonyl)-4-(4-fluoro-phenyl)-quinoline]	< 200 nM	> 500 nM
N#Cc1cc(F)cc(S(=O)(=O)c2cnc3cc(Cl)ccc3c2-c2ccc(Cl)cc2)c1 [Compound 269]	< 200 nM	> 500 nM
N#Cc1cccc(S(=O)(=O)c2cnc3cc(F)ccc3c2-c2ccccc2F)c1 [Compound 230]	< 200 nM	> 500 nM
N#Cc1cccc(S(=O)(=O)c2cnc3cc(C#N)ccc3c2-c2ccc(F)cc2)c1 [Compound 193]	200 to 500 nM	> 500 nM
O=S(=O)(c1ccc(F)c(F)c1)c1cnc2ccccc2c1-c1ccc(Cl)c(Cl)c1 [Compound 260]	< 200 nM	> 500 nM
Cc1ccc(S(=O)(=O)c2cnc3c(F)cccc3c2-c2ccc(Cl)cc2)cc1F [Compound 110]	< 200 nM	> 500 nM
N#Cc1cccc(S(=O)(=O)c2cnc3cc(F)ccc3c2-c2cccc(F)c2)c1 [Compound 38]	< 200 nM	200 to 500 nM

Further lines, results first:

Ki [1]	Ki [2]	SMILES
< 200 nM	> 500 nM	COc1cccc(S(=O)(=O)c2cnc3ccc(F)cc3c2-c2cccc(Cl)c2)c1 [Compound 72]
< 200 nM	> 500 nM	O=S(=O)(c1cccc(F)c1)c1cnc2cc(F)ccc2c1-c1ccc(F)cc1 [Compound 16]
< 200 nM	200 to 500 nM	O=S(=O)(c1ccc(F)c(F)c1)c1cnc2ccc(F)cc2c1-c1ccc(F)cc1 [Compound 152]
> 500 nM	> 500 nM	COc1ccc(-c2c(S(=O)(=O)c3ccc(OC)c(OC)c3)cnc3ccc(F)cc23)cc1 [Compound 71]
< 200 nM	> 500 nM	O=S(=O)(c1ccc(F)c(Cl)c1)c1cnc2cc(Cl)ccc2c1-c1ccc(Cl)cc1 [Compound 176]
< 200 nM	> 500 nM	COc1ccc(S(=O)(=O)c2cnc3c(F)cccc3c2-c2cccc(Cl)c2)cc1 [Compound 53, 4-(3-chloro-phenyl)-8-fluoro-3-(4-methoxy-benzenesulfonyl)-quinoline]
< 200 nM	> 500 nM	O=S(=O)(c1ccc(F)cc1)c1cnc2cc(Cl)ccc2c1-c1ccc(Cl)cc1 [Compound 172]
< 200 nM	> 500 nM	O=S(=O)(c1ccc(F)cc1)c1cnc2cc(Cl)ccc2c1-c1ccc(F)cc1 [Compound 179]
< 200 nM	> 500 nM	O=S(=O)(c1ccc(F)c(F)c1)c1cnc2cc(Cl)ccc2c1-c1ccc(F)cc1 [Compound 182]
< 200 nM	> 500 nM	O=S(=O)(c1ccc(F)c(Cl)c1)c1cnc2cc(Cl)ccc2c1-c1ccc(F)cc1 [Compound 183]
< 200 nM	> 500 nM	COc1cccc(-c2c(S(=O)(=O)c3ccc(C)c(F)c3)cnc3ccc(F)cc23)c1 [Compound 130]
< 200 nM	< 200 nM	O=S(=O)(c1ccc(F)c(Cl)c1)c1cnc2cc(F)ccc2c1-c1ccc(F)cc1 [Compound 105]
< 200 nM	> 500 nM	Cc1ccc(S(=O)(=O)c2cnc3ccc(F)cc3c2-c2ccc(F)cc2)cc1F [Compound 131]
